Measurements: patent US4620014A, “2-furylbutyrolactones and methods for using same” (priority 1983, dated 1986)
Where two headings read alike, the source gives them in different places.

Key:
[1] = test system: antibody response to bovine serum albumin (BSA); settings: for stimulation of antibody response to BSA: day 13
Text: The effect of the compounds of this invention on the immune response to specific antigens involves immunization of mice with specific anitgens such as bovine serum albumin (BSA) or keyhole limpet hemocyanin (KLH). Following immunization, it is possible to assess the cell-mediated or humoral (antibody) immune response to these antigens by various methods:
(2) Antibody response to soluble antigens such as BSA or KLH can be quantitated using a micro-ELISA solid phase heterogeneous immunoassay. The assay can be designed to quantitate class specific immunoglobulins (i.e., IgG or IgM).
The cut-off for the titer was the highest dilution of mouse serum yielding an O.D.≤0.1 when read on the MR-600 Dynatech micro-ELISA reader.
Mice of the C57BL/6 strain are given i.p. injections of either 50, 100, 200 or 400 mg/kg of Cpd. 1 or buffer for twelve days (days 1-12). An antigen, bovine serum albumin (BSA), is administered intraperitoneally with Freund's Complete Adjuvant (FCA) on days 1, 7 and 14. Blood samples are taken for assay of the antibody response on days 0, 5, 13, and 19.

[2] = test system: spleen lymphocytes of SJL/J mice
Protocol: (§1) The purpose of this assay is to challenge lymphocytes in microcultures with one or more polyclonal mitogens at concentrations that will induce mitogenesis within 72 hours of stimulation.
(§2) In the mouse model, spleens are removed from different strains of mice and the spleen cells are teased free and suspended in RPMI-1640 tissue culture medium at a concentration of usually 1×10^7 ml. These cells are dispensed at a concentration of 5.0×10^5 cells per microculture well in a 96 well flat bottom 96 well tissue culture plate. All testing of the compounds of this invention or mitogens are done in replicates of 10. The cells are then treated with PHA, Con-A, specific antigens, or buffer only. If in vitro testing is done, varying concentrations of the compounds of this invention or buffer only are added to the cells as well. After treatment with the mitogens and/or compounds of this invention, the cells are incubated for 72 hours. The response of these cells to mitogens and/or the compounds of this invention is assessed using ^14 C-thymidine labeling on the fourth day at a concentration of 0.01 μCi/well. The labeled cells are harvested using a lymphocyte harvestor and placed onto fibrous paper discs. A scintillation cocktail is added to vials contaning the discs and the results are obtained using a LKB-liquid scintillation counter (Model 1216/Rackbeta II). The data is expressed as a ratio of the cpm of the mitogen stimulated group to the control (non-mitogen) treated group=lymphocyte stimulation index (LSI).
(§3) The lymphocyte stimulation assay may be performed directly on spleen cells obtained from various strains of mice not treated with the compounds of this invention or on lymphocytes obtained from […]. […] Alternatively, the mice may be treated in vivo with the compounds of this invention by intraperitoneal multi-dose schedules, followed by sacrifice and harvesting spleen lymphocytes. These cells are then tested for their response to polyclonal mitogens or specific antigens used to immunize the mice. In this sytem however, no additional compound is added to the in vitro lymphocyte stimulation assay system.
Three month old mice of the SJL/J strain, which are T-cell deficient, are treated with i.p. administration of 100, 200, or 400 mg/kg of Cpd. 1 or just buffer for four days. This is followed by a lymphocyte stimulation assay.
An in vivo lymphocyte stimulation assay was performed on SJL/J mice of different ages, either 2, 5, or 10 months. The mice received i.p. injections of either 100 mg/kg of Cpd. 1 or just buffer.

[3] = test system: spleen lymphocytes of C57BL/6 mice; experiment: In vivo treatment, lymphocyte stimulation assay, C57BL/6 mice
Protocol: as §1, §2, §3
Two strains of mice, C57BL/6 and BDF1 are treated for seven days with i.p. administration of either 25, 50, 100, 200, or 400 mg/kg of Cpd. 1 or just buffer. This is followed on the eighth day by a lymphocyte stimulation assay.
A comparison is made of the lymphocyte response to C57BL/6 mice treated 4 days with i.p. administration of either 50, 100, 200, 400 or 800 mg/kg of Cpd. 1, 50, 100, 200, 400 or 800 mg/kg of ascorbic acid (AA), or just buffer. This is followed on the fifth day by a lymphocyte stimulation assay.
Two strains of mice, C57BL/6 and BALB/c, are treated 4 days with i.p. administration of either 50, 100, 200, or 400 mg/kg of Cpd. 1, or just buffer. This is followed on the fifth day by a lymphocyte stimulation assay.
C57BL/6 mice were treated with four daily i.p. doses of either 50, 100, 200, or 400 mg/kg of Cpd. 1 or just buffer. On the fifth day a lymphocyte stimulation assay was performed.
Mice of the C57BL/6 strain were tested with i.p. administration of either 100, 200, 400 or 600 mg/kg of Cpd. 1 or just buffer. This was followed by removal of spleens and treatment of lymphocytes therein with mitogens PHA and Con-A.
The compound of Example 2, Cpd. 2, was tested in vivo by using C57BL/6 mice and treating them with […] or just buffer for four consecutive days by the i.p. route. On the fifth day a lymphocyte stimulation assay was performed.

[4] = 100 mg/kg i.p., four days, three month old mice
[5] = 200 mg/kg i.p., four days, three month old mice
[6] = 400 mg/kg i.p., four days, three month old mice

`Cc1ccc(C2(O)C(=O)OC3C(O)COC32O)o1.Cc1ccc(C2(O)C(=O)OC3C(O)COC32O)o1.O=C1CCC(=O)O1` (stereo not shown) [Cpd. 1] was tested, and the “Micro-ELISA Titer” value ([1]; 50 mg/kg i.p., day 5) was “N/R”, the “Micro-ELISA Titer” value ([1]; 50 mg/kg i.p., prebleed) was “N/R” and the “antibody titer over the control” value ([1]; 50 mg/kg, day 19) was “slight increase”. For the same molecule, the “Micro-ELISA Titer” value ([1]; 100 mg/kg i.p., day 5) was “N/R”, the “Micro-ELISA Titer” value ([1]; 100 mg/kg i.p., prebleed) was “N/R” and the “Micro-ELISA Titer” value ([1]; 200 mg/kg i.p., day 5) was “N/R”. For the same molecule, the “Micro-ELISA Titer” value ([1]; 200 mg/kg i.p., prebleed) was “N/R”, the “Micro-ELISA Titer” value ([1]; 400 mg/kg i.p., day 5) was “N/R” and the “Micro-ELISA Titer” value ([1]; 400 mg/kg i.p., prebleed) was “N/R”. For the same molecule, the “stimulation of antibody response to BSA” value ([1]; 50 and 100 mg/kg) was “slight amount of stimulation”, the “increase of antibody response to BSA over controls” value ([1]; 100 and 200 mg/kg, day 19) was 16 fold and the “stimulation of antibody response to BSA” value ([1]; 200 and 400 mg/kg) was “significant (four-fold) stimulation”. For the same molecule, the “Lymphocyte Stimulation Index, Con-A” value ([2]; 100 mg/kg i.p., age 2 months) was 167, the “Lymphocyte Stimulation Index, Control (no mitogen)” value ([2]; 100 mg/kg i.p., age 2 months) was 2.3 and the “Lymphocyte Stimulation Index, PHA” value ([2]; 100 mg/kg i.p., age 2 months) was 32.6. For the same molecule, the “Lymphocyte Stimulation Index, Con-A” value ([2]; 100 mg/kg i.p., age 5 months) was 12.9, the “Lymphocyte Stimulation Index, Control (no mitogen)” value ([2]; 100 mg/kg i.p., age 5 months) was 1.9 and the “Lymphocyte Stimulation Index, PHA” value ([2]; 100 mg/kg i.p., age 5 months) was 1.16. For the same molecule, the “Lymphocyte Stimulation Index, Con-A” value ([2]; 100 mg/kg i.p., age 10 months) was 14.5, the “Lymphocyte Stimulation Index, Control (no mitogen)” value ([2]; 100 mg/kg i.p., age 10 months) was 2.1 and the “Lymphocyte Stimulation Index, PHA” value ([2]; 100 mg/kg i.p., age 10 months) was 9.18. The “Lymphocyte Stimulation Index, Con-A” value [2, 4] was 5.01, the “Lymphocyte Stimulation Index, Control (no mitogen)” value [2, 4] was 0.573 and the “Lymphocyte Stimulation Index, PHA” value [2, 4] was 1.85. For the same molecule, the Con-A response ([2]; 100 mg/kg, 2 months of age) was “increased”, the PHA response ([2]; 100 mg/kg, 2 months of age) was “decreased” and the “mitogenesis response to PHA and Con-A” value ([2]; 100 mg/kg, 5 months of age) was “depressed mitogenesis response”. For the same molecule, the “PHA and Con-A mitogenic response” value ([2]; 100 mg/kg, ten month old) was “significant stimulation”, the “Lymphocyte Stimulation Index, Con-A” value [2, 5] was 4.57 and the “Lymphocyte Stimulation Index, Control (no mitogen)” value [2, 5] was 0.732. The “Lymphocyte Stimulation Index, PHA” value [2, 5] was 1.79, the “Lymphocyte Stimulation Index, Con-A” value [2, 6] was 3.30 and the “Lymphocyte Stimulation Index, Control (no mitogen)” value [2, 6] was 0.693. The “Lymphocyte Stimulation Index, PHA” value [2, 6] was 2.31, the “T-lymphocyte proliferation, PHA” value ([3]; 200 mg/kg i.p., 7 days) was “stimulation of T-lymphocyte proliferation” and the “response to PHA” value ([3]; 400 mg/kg compared to 200 mg/kg, four daily doses) was “decrease in the response to PHA”. For the same molecule, the PHA response ([3]; 400 mg/kg i.p., 7 days) was “strong suppression of the PHA response”, the Con-A response ([3]; 400 mg/kg i.p., 7 days, compared to 200 mg/kg) was “suppression of the Con-A response” and the “DNA synthesis of spleen cell lymphocytes” value ([3]; 400 mg/kg, compared to 200 mg/kg, 4 days) was “suppress DNA synthesis”. For the same molecule, the evidence of toxicity ([3]; 600 mg/kg i.p., five day administration) was “no evidence of toxicity”, the stimulation of lymphocytes ([3]; 600 mg/kg, compared to 100 to 400 mg/kg, five days) was “less stimulation” and the “lymphocyte DNA synthesis, PHA and Con-A” value ([3]; 50, 100 and 200 mg/kg i.p., 4 days) was “tend to stimulate lymphocyte DNA synthesis”. For the same molecule, the Con-A response ([3]; 50, 100 and 200 mg/kg i.p., 7 days) was “increased”, the “response to polyclonal mitogens” value ([3]; 50-400 mg/kg i.p., four daily doses) was “Stimulation of the response to polyclonal mitogens” and the “effect, Con-A” value ([3]; 50 to 200 mg/kg i.p., 4 days) was “significant stimulatory effect”. For the same molecule, the “lymphocyte DNA synthesis, PHA” value ([3]; 100 and 200 mg/kg i.p., 4 days) was “tend to stimulate lymphocyte DNA synthesis”, the “Con-A and PHA treated lymphocytes” value ([3]; 100 to 400 mg/kg, five days) was “significant stimulation” and the “DNA synthesis of spleen lymphocytes, PHA” value ([3]; 400 to 800 mg/kg i.p., 4 days) was “suppress DNA synthesis of spleen lymphocytes”. For the same molecule, the “effect, Con-A” value ([3]; 400 to 800 mg/kg i.p., 4 days) was “significant anti-proliferative effect”.
